Holding throughout (test): BRET assay using TRUPATH biosensors, Gi activation of ADGRF1
Holding throughout (type): cell-based
In general terms: In BRET a luciferase serves as donor, and the signal depends on an acceptor being close.

Assay [1] addresses T1, ADGRF1 (Homo sapiens, UniProt Q5T601, F690A).
T1 construct: Flag (N); expressed in transfected cells; host or cells: HEK293F
T1 sequence (Q5T601 20-910 F690A): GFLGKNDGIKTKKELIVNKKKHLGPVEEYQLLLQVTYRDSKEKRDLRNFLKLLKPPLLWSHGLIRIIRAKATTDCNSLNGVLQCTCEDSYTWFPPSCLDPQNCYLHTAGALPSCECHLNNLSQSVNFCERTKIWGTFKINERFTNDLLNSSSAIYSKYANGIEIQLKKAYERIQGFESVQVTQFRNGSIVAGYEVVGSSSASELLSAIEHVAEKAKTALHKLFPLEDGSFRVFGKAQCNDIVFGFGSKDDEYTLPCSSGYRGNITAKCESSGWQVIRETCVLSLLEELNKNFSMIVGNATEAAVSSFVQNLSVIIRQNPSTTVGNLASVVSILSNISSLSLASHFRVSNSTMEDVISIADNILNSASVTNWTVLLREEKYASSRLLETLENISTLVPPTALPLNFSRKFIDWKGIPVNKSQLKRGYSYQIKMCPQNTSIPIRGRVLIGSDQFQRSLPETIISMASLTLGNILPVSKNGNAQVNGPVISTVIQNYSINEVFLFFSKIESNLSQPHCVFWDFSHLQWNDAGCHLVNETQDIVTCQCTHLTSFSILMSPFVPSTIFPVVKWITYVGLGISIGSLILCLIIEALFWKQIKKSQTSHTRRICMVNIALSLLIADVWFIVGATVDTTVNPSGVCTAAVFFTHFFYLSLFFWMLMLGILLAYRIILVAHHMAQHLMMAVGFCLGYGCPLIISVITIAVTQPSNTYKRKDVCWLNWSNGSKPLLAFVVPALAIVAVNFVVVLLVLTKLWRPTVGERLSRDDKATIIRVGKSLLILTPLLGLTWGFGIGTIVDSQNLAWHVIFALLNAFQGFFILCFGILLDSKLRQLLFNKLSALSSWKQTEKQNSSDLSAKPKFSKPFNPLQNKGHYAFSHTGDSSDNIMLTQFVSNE
As to conditions: ADGRF1 F690^ICL2A. On the procedure: (§1) To study the synthetic stalk peptide-induced G protein activation of ADGRD1 and ADGRF1, a BRET assay using TRUPATH biosensors was conducted to measure the proximal interaction between RLuc8 fused to the Gα subunit and GFP2 fused to the Gγ subunit. The TRUPATH suite of biosensors was obtained from Addgene (Addgene kit no. 1000000163) as a gift from B. Roth, including GαsS-RLuc8, Gαi1-RLuc8, Gβ3 and Gγ9-GFP2 as previously described.
(§2) The wild-type or mutant ADGRD1 and ADGRF1 were transiently co-transfected with plasmids encoding Gα-RLuc8 (GαsS-RLuc8 for Gs activation assay; Gαi1-RLuc8 for Gi activation assay), Gβ3 and Gγ9-GFP2 at a ratio of 2:1:1:1 (receptor plasmid, 800 ng; G protein subunit plasmids, 400 ng for each) in 2 ml HEK293F cells at a density of 1.2 × 10^6 cells per ml. Cell cultivation and receptor surface expression measurement were performed as described above. The cells were plated into 96-well white plates (40,000 cells per well) in 60 μl of assay buffer and incubated at 37 °C for 30 min. Then 10 μl of freshly prepared 50 μM coelenterazine 400a (Nanolight Technologies) was added. […] The cells were stimulated with 30 μl of synthetic stalk peptide at different concentrations and the BRET signals were monitored continuously five times. The last measurements were used in data analysis. The BRET ratios were calculated as the ratio of the GFP2 emission to RLuc8 emission.

The target of assay [2] is T2, ADGRF1 (Homo sapiens, UniProt Q5T601, G807W).
T2 construct: Flag (N); expressed in transfected cells; host or cells: HEK293F
As to conditions: ADGRF1 G807^6.56bW, n = 3. On the procedure:
as §1, §2

Assay [3] deals with T3, ADGRF1 (Homo sapiens, UniProt Q5T601, L681A).
T3 construct: Flag (N); expressed in transfected cells; host or cells: HEK293F
As to conditions: ADGRF1 L681^3.53bA. On the procedure:
as §1, §2

In assay [4] the target is T4, ADGRF1 (Homo sapiens, UniProt Q5T601, L682A).
T4 construct: Flag (N); expressed in transfected cells; host or cells: HEK293F
As to conditions: ADGRF1 L682^3.54bA. On the procedure:
as §1, §2

Assay [5] addresses T5, ADGRF1 (Homo sapiens, UniProt Q5T601, M675A).
T5 construct: Flag (N); expressed in transfected cells; host or cells: HEK293F
As to conditions: ADGRF1 M675^3.47bA. On the procedure: as §1, §2

For assay [6], the target named is T6, ADGRF1 (Homo sapiens, UniProt Q5T601, Q830A).
T6 construct: Flag (N); expressed in transfected cells; host or cells: HEK293F
As to conditions: ADGRF1 Q830^7.49bA. On the procedure: as §1, §2

Assay [7] has as its target T7, ADGRF1 (Homo sapiens, UniProt Q5T601, T589A).
T7 construct: Flag (N); expressed in transfected cells; host or cells: HEK293F
As to conditions: ADGRF1 T589^1.40bA. On the procedure:
as §1, §2

In assay [8] the target is T8, ADGRF1 (Homo sapiens, UniProt Q5T601, W734A).
T8 construct: Flag (N); expressed in transfected cells; host or cells: HEK293F
As to conditions: ADGRF1 W734^ECL2A. On the procedure:
as §1, §2

Assay [9] concerns the target T9, ADGRF1 (Homo sapiens, UniProt Q5T601, Y684A).
T9 construct: Flag (N); expressed in transfected cells; host or cells: HEK293F
As to conditions: ADGRF1 Y684^3.56bA. On the procedure: as §1, §2

Setting [10] is: n = 3, read-out: pEC50 (mean ± s.e.m.) (converted).

pEC50: −log10 of the molar value. Ends that are not written are not given here.

T7 sequence (Q5T601 20-910 T589A): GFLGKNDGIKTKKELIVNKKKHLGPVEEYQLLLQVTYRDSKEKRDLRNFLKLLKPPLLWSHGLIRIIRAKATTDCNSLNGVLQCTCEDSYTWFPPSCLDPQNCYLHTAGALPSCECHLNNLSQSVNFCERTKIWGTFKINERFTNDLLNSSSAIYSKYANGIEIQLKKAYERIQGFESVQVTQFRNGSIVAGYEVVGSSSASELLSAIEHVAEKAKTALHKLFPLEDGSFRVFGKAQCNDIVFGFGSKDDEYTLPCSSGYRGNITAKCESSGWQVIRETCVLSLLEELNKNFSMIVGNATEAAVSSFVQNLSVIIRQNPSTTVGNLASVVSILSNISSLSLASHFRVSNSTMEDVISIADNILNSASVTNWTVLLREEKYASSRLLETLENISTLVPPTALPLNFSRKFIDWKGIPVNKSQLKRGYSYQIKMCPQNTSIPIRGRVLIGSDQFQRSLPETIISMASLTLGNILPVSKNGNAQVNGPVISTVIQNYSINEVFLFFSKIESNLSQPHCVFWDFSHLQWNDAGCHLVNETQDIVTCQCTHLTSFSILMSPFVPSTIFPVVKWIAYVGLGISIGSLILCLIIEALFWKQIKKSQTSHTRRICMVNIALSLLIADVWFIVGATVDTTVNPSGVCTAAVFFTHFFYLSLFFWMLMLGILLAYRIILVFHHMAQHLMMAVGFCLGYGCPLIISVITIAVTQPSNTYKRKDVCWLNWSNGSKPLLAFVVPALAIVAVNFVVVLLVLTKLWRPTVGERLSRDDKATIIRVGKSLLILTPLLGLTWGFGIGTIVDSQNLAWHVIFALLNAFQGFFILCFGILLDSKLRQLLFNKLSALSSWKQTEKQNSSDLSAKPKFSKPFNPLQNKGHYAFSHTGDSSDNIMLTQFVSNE
T9 sequence (Q5T601 20-910 Y684A): as the sequence (Q5T601 20-910 T589A) above, with A570T, Y665A counted along it
T6 sequence (Q5T601 20-910 Q830A): as the sequence (Q5T601 20-910 T589A) above, with A570T, Q811A counted along it
T8 sequence (Q5T601 20-910 W734A): as the sequence (Q5T601 20-910 T589A) above, with A570T, W715A counted along it
T3 sequence (Q5T601 20-910 L681A): as the sequence (Q5T601 20-910 T589A) above, with A570T, L662A counted along it
T5 sequence (Q5T601 20-910 M675A): as the sequence (Q5T601 20-910 T589A) above, with A570T, M656A counted along it
T4 sequence (Q5T601 20-910 L682A): as the sequence (Q5T601 20-910 T589A) above, with A570T, L663A counted along it
T2 sequence (Q5T601 20-910 G807W): as the sequence (Q5T601 20-910 T589A) above, with A570T, G788W counted along it

As for TSFSILMSPFVP [pF1], the “Emax (mean ± s.e.m.)” value on ADGRF1 [1] (n = 3) is given as 94 ± 15 % of WT; on ADGRF1 [2], 101 ± 13 % of WT; on ADGRF1 [3] (n = 3) it was 59 ± 10 % of WT; at ADGRF1 [4] (n = 3), 79 ± 12 % of WT; on ADGRF1 [5] (n = 3), 81 ± 13 % of WT; on ADGRF1 [6] (n = 3), 124 ± 15 % of WT. For the same sequence, the “Emax (mean ± s.e.m.)” value at ADGRF1 [7] (n = 3) is 114 ± 13 % of WT; at ADGRF1 [8] (n = 3), 60 ± 11 % of WT; on ADGRF1 [9] (n = 3), 115 ± 17 % of WT. Also, the EC50 is 79.4 nM on ADGRF1 [1] (setting [10]); 120 nM at ADGRF1 [3] (setting [10]); 269 nM on ADGRF1 [4] (setting [10]); 427 nM at ADGRF1 [5] (setting [10]); 851 nM at ADGRF1 [6] (setting [10]); 87.1 nM at ADGRF1 [7] (setting [10]). In addition, the EC50 was 138 nM at ADGRF1 [8] (setting [10]) and 813 nM on ADGRF1 [9] (setting [10]). For the same sequence, on ADGRF1 [2], the pEC50 was 5.82.

For orientation: pEC50 means the negative decadic logarithm of the EC50, by convention in mol/L. Read a low pEC50 as a large EC50.

Source of the values: paper PMC9046087, “Structural basis of tethered agonism of the adhesion GPCRs ADGRD1 and ADGRF1” (Nature, 2022).
